Results taken from US20100324075A1, “THERAPEUTIC USE OF CARBOXYL ESTER LIPASE INHIBITORS” (UNIVERSITY OF CINCINNATI, priority 2007, published 2010).

Legend:
CEL [1] = target: T1, CEL (Homo sapiens, UniProt P19835); test: Serum HDL, LDL and VLDL cholesterol in a patient with suboptimal HDL given a CEL inhibitor; format: in vivo; conditions: daily oral dose 1 mg per kg, two weeks
T1 construct: The patient takes a daily oral dose of 1 mg per kg body of weight; from tissue; host or cells: whole organism: patient (endogenous enzyme)
T1 sequence (P19835 21-753): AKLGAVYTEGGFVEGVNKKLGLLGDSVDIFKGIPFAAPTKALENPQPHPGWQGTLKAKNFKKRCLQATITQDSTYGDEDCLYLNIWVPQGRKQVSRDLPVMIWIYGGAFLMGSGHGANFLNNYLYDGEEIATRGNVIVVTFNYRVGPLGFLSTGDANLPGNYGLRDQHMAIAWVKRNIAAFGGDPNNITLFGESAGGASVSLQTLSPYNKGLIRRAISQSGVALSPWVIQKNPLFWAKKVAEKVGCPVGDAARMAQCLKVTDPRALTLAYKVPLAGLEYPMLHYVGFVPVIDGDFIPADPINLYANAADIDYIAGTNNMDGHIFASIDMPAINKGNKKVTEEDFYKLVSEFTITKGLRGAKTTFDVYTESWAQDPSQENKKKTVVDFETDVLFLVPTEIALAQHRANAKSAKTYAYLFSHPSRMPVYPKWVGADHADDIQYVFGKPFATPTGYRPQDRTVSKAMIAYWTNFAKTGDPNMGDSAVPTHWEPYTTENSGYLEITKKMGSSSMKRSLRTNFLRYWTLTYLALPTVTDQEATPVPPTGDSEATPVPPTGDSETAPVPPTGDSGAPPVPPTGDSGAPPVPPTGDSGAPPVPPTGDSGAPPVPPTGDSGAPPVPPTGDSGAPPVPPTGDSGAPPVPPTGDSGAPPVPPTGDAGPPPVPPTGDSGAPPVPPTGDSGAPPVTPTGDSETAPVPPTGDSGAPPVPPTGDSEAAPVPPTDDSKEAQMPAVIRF
Description: (§1) A patient with suboptimal HDL cholesterol level, which is not the result of a known genetic or other predisposing condition, is prescribed (1,5-dimethylhexyl)carbamic acid 4-phenoxyphenyl ester to raise serum HDL levels. The patient takes a daily oral dose of 1 mg per kg body of weight for a period of two weeks, after which serum cholesterol in HDL, LDL, and VLDL is again measured. It is determined that HDL cholesterol has increased by 15-20%, that the ratio of HDL:LDL has increased, and that VLDL is decreased, such that risk for cardiovascular disease is reduced.
as §1, with “4-methyl-1-piperidinecarboxylic” for “(1,5-dimethylhexyl)carbamic”

CEL [2] = target: T2, CEL (Mus musculus, UniProt Q64285); test: Daily fecal cholesterol (neutral sterol) excretion in mice fed CEL inhibitor in chow (reverse cholesterol transport); format: in vivo; conditions: C57BL/6 mice
T2 construct: from tissue; host or cells: whole animal: wild-type C57BL/6 mice (CEL made by pancreas and liver)
T2 sequence (Q64285 21-599): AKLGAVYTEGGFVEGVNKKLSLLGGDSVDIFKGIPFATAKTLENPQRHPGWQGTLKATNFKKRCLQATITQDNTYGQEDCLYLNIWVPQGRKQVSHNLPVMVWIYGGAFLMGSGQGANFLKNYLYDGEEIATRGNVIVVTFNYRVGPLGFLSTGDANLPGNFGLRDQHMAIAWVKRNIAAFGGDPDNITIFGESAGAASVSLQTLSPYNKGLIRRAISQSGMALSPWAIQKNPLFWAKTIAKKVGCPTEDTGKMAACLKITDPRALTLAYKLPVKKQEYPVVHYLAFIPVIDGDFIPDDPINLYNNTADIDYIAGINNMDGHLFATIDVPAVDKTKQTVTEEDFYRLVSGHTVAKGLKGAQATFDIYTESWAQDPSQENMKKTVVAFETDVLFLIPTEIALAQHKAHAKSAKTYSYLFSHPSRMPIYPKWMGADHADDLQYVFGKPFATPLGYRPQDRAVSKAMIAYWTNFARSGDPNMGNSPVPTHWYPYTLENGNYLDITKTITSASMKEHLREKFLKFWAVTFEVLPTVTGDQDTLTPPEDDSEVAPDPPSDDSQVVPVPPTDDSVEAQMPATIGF
Description: FIG. 8. Excretion of neutral sterol mass is increased by feeding CEL inhibitor (1,5-dimethylhexyl)carbamic acid 4-phenoxyphenyl ester to normal C57BL/6 mice. Inhibitor was mixed with standard rodent chow and fed to mice after baseline excretion was determined. Sterol excretion was again determined after 2 weeks of inhibitor treatment. The change from baseline is plotted for each mouse (n=13).
Animals were individually housed in cages fitted with a wire platform with full access to food and water. After a 1 or 2 day acclimation period, feces were collected for 72 h and sterols were quantitated using a variation of the method described by Post et al. (Post, et al., Increased fecal bile acid excretion in transgenic mice with elevated expression of human phospholipid transfer protein. Arterioscler. Thromb. Vasc. Biol. 23:892-97 (2003)). After being dried and weighed, fecal material was ground to a fine powder. 5α-cholestane (40 μg) and [24-^14C]-taurocholic acid (0.02 μCi) were added to 0.5 g of the ground fecal material as internal standards for extraction efficiency of neutral and acidic sterols, respectively. The fecal material plus standards were suspended in 10 volumes of alkaline methanol (0.2 M NaOH in 80% methanol), incubated at 80° C. for 2 hr, and neutral sterols were separated by 3 extractions with equal volumes of petroleum ether. The combined organic fractions were evaporated under nitrogen, resuspended in hexane, and a portion was used to measure neutral sterols by gas chromatography (Shimadzu Scientific Instruments). Data reported represent the sum of areas under the curves for cholesterol, coprostanol, and lathosterol. The aqueous residue from above was filtered, washed, dried, resuspended in water, and applied to prewashed C18 Bond Elut columns (Varian Inc., Palo Alto, Calif.). Bile acids were eluted from the columns with methanol, concentrated and quantitated by colorimetric assay (Trinity Biotech). To measure fecal sterol esters, ground fecal samples were resuspended in water, extracted with petroleum ether, concentrated, resolved by TLC as above and visualized at 80° C. after staining with 10% phosphomolybdic acid in ethanol, or bands were scraped and quantitated by scintillation spectrometry.
The effect of (1,5-dimethylhexyl)carbamic acid 4-phenoxyphenyl ester on cholesterol disposal has been measured in C57BL/6 mice. Baseline daily fecal cholesterol disposal by chow-fed mice was measured over 3 days using established methods. Thereafter, the same mice were fed a chow diet to which had been added 1 milligram of (1,5-dimethylhexyl)carbamic acid 4-phenoxyphenyl ester per gram of food. The average body weight of the mice was 24 grams. Mice of this size are known to eat between 3.5 and 4 grams of chow per day. Thus, the amount of inhibitor consumed was between 3.5 and 4.0 milligrams per mouse per day or between 146 and 167 milligrams per kilogram of bodyweight. After eating inhibitor-containing diet for 2 weeks, daily fecal cholesterol excretion was again measured over 3 days. […] The average excretion at baseline was 48.9±11.3 micrograms per day per gram bodyweight (range 28.6 to 71.8), which increased to 62.1±10.4 micrograms per day per gram bodyweight (range 45.3 to 89.1) after treatment. The average change per mouse was +33.0% (range −19.3 to +95.4), with 10 of the 13 mice responding positively, 1 showing no change and 2 responding negatively).

SMILES	VLDL (CEL [1])	increase in HDL cholesterol (CEL [1])	ratio of HDL:LDL (CEL [1])	average change per mouse in cholesterol excretion from baseline (CEL [2]; 1 mg/g chow, 2 weeks, n=13, range −19.3 to +95.4)	mice responding positively (increased cholesterol excretion) (CEL [2]; 1 mg/g chow, 2 weeks, 1 no change, 2 negative)	cholesterol excretion, paired data analysis vs baseline (CEL [2]; 1 mg/g chow, 2 weeks, P=0.01)	average increase in cholesterol excretion over baseline, of those that responded positively (CEL [2]; 1 mg/g chow, 2 weeks, positive responders only) [%]	average fecal cholesterol excretion after treatment (CEL [2]; 1 milligram inhibitor per gram chow for 2 weeks, n=13, baseline 48.9±11.3)
CC1CCN(C(=O)Oc2ccc(Oc3ccccc3)cc2)CC1 [4-methyl-1-piperidinecarboxylic acid 4-phenoxyphenyl ester]	decreased	15-20%	increased	–	–	–	–	–
CC(C)CCCC(C)NC(=O)Oc1ccc(Oc2ccccc2)cc1 (centres unmarked) [(1,5-dimethylhexyl)carbamic acid 4-phenoxyphenyl ester]	decreased	15-20%	increased	+33.0%	10 of the 13	significantly increased	46.7	62.1±10.4 micrograms per day per gram bodyweight
